Literature values as cited in patent US10765633B2, “Formulation comprising liposomes” (Eisai R&D Management Co., Ltd., priority 2018, dated 2020).

System: HDL
Conditions: binding of eritoran to HDL

CCCCCC/C=C\CCCCCCCCCC(=O)N[C@H]1[C@H](OC[C@H]2O[C@H](OP(=O)(O)O)[C@H](NC(=O)CC(=O)CCCCCCCCCCC)[C@@H](OCCCCCCCCCC)[C@@H]2O)O[C@H](COC)[C@@H](OP(=O)(O)O)[C@@H]1OCC[C@@H](CCCCCCC)OC [eritoran, Eritoran]
effect of binding to HDL on drug activity: time-dependent loss of drug activity
